Legend:
BxPC-3 [1] = experiment: In vitro cytotoxicity, BxPC-3
Description: (§3) Cell lines, antibodies, and chemotherapeutics—All human cancer cell lines used in this study were purchased from the American Type Culture Collection.

MDA-MB-468 [2] = experiment: SN-38 sensitivity (MTS), MDA-MB-468; type: cell-based, human; conditions: MDA-MB-468 (TNBC), 96 h
Method: (§1) In vitro cytotoxicity testing—Sensitivity to SN-38 was determined using the 3-(4,5-dimethylthiazol-2-yl)-5-(3-carboxymethoxyphenyl)-2-(4-sulfophenyl)-2H-tetrazolium dye reduction assay (MTS dye reduction assay; Promega, Madison, WI). Briefly, cells were plated into 96-well clear, flat-bottomed plates as described above. SN-38 dissolved in DMSO was diluted with media to a final concentration of 0.004 to 250 nM. […] Growth inhibition was measured as a percent of growth relative to untreated cells. Dose-response curves were generated from the mean of triplicate determinations, and IC50-values were calculated using Prism GraphPad Software.

p21^Waf1/Cip1 and p53 [3] = experiment: Signaling events (p21Waf1/Cip1, p53) in Calu-3; type: cell-based, human
Description: (§4) Our initial studies examined the expression of 2 proteins involved in early signaling events (p21^Waf1/Cip1 and p53) and 1 late apoptotic event [cleavage of poly-ADP-ribose polymerase (PARP)] in vitro (not shown).

HCC38 = experiment: SN-38 sensitivity (MTS), HCC38; type: cell-based, human; conditions: HCC38 (TNBC), 96 h
Method: as §1

COLO 205 = experiment: In vitro cytotoxicity, COLO 205
Description: as §3

BxPC-3 [4] = experiment: Cytotoxicity (MTS), Example 6, BxPC-3; type: cell-based, human; conditions: BxPC-3, 96 h
Method: (§2) One day prior to adding the ADCs, cells were harvested from tissue culture and plated into 96-well plates. […] Plates were incubated at 37° C. for 96 h. […] Growth inhibition was measured as a percent of growth relative to untreated cells using Microsoft Excel and Prism software (non-linear regression to generate sigmoidal dose response curves which yield IC50-values.

MDA-MB-231 = experiment: SN-38 sensitivity (MTS), MDA-MB-231; type: cell-based, human; conditions: MDA-MB-231 (TNBC), 96 h
Method: as §1

SK-MES-1 = experiment: In vitro cytotoxicity, SK-MES-1
Description: as §3

p21^WAF1/Cip1 = experiment: Immunoblotting, apoptotic pathway, MDA-MB-468; type: cell-based, human; conditions: MDA-MB-468, by 48 h
Method: Immunoblotting—Cells (2×10^6) were plated in 6-well plates overnight. […] Parental hRS7 was used as a control for the ADC.

Capan-1 [5] = experiment: In vitro cytotoxicity, Capan-1
Description: as §3

HCC1806 = experiment: SN-38 sensitivity (MTS), HCC1806; type: cell-based, human; conditions: HCC1806 (TNBC), 96 h
Method: as §1

MCF-7 = experiment: SN-38 sensitivity (MTS), MCF-7; type: cell-based, human; conditions: MCF-7 (ER+), 96 h
Method: as §1

NCI-N87 = experiment: Cytotoxicity (MTS), Example 6, NCI-N87; type: cell-based, human; conditions: NCI-N87, 96 h
Method: as §2

PARP = experiment: Immunoblotting, apoptosis signaling, NCI-N87 and BxPC-3; type: cell-based, human; conditions: evident at 24 h, increased at 48 h
Method: Immunoblotting—Cells (2×10^6) were plated in 6-well plates overnight. […] Parental hRS7 was used as a control for the ADC. Cells were lysed in buffer containing 10 mM Tris, pH 7.4, 150 mM NaCl, protease inhibitors and phosphatase inhibitors (2 mM […], 10 mM NaF). A total of 20 μg protein was resolved in a 4-20% SDS polyacrylamide gel, transferred onto a nitrocellulose membrane and blocked by 5% non-fat milk in 1×TBS-T (Tris-buffered saline, 0.1% Tween-20) for 1 h at room temperature. Membranes were probed overnight at 4° C. with primary antibodies followed by 1-h incubation with antirabbit secondary antibody (1:2500) at room temperature. Signal detection was done using a chemiluminescence kit (Supersignal West Dura, Thermo Scientific; Rockford, IL) with the membranes visualized on a Kodak Image Station […]. Primary antibodies p21Waf1/Cip1 (Cat. No. 2947), Caspase-3 (Cat. No. 9665), Caspase-7 (Cat. No. 9492), Caspase-9 (Cat. No. 9502), PARP (Cat. No. 9542), 3-actin (Cat. No. 4967), pJNK1/2 (Cat. No. 4668), JNK (Cat. No. 9258), and goat anti-rabbit-HRP secondary antibody (Cat. No. 7074) were obtained from Cell Signal Technology (Danvers, MA).

SK-BR-3 = experiment: SN-38 sensitivity (MTS), SK-BR-3; type: cell-based, human; conditions: SK-BR-3 (HER2+), 96 h
Method: as §1

p21^Waf1/Cip1 and p53 [6] = experiment: Signaling events (p21Waf1/Cip1, p53) in BxPC-3; type: cell-based, human
Description: as §4

Capan-1 [7] = experiment: Cytotoxicity (MTS), Example 6, Capan-1; type: cell-based, human; conditions: Capan-1, 96 h
Method: as §2

BxPC-3 [8] = experiment: Cytotoxicity (MTS), Example 7, BxPC-3; type: cell-based, human; conditions: BxPC-3, 96 h
Method: as §2, with “ADC,” for “ADCs,”, “plates at 2000 cells per well.” for “plates.”, “IC50-values).” for “IC50-values.”

MDA-MB-468 [9] = experiment: Cytotoxicity (MTS), Example 7, MDA-MB-468; type: cell-based, human; conditions: MDA-MB-468, 96 h
Method: as §2, with “ADC,” for “ADCs,”, “plates at 2000 cells per well.” for “plates.”, “IC50-values).” for “IC50-values.”

PC-3 = experiment: In vitro cytotoxicity, PC-3
Description: as §3

Calu-3 = experiment: In vitro cytotoxicity, Calu-3
Description: as §3

CCc1c2c(nc3ccc(O)cc13)-c1cc3c(c(=O)n1C2)COC(=O)[C@]3(O)CC [SN-38, 7-ethyl-10-hydroxycamptothecin]
IC50 (BxPC-3 [1]): 1.44 nM | IC50 (MDA-MB-468 [2]): 2 nM | exposure time at which p53 upregulation is evident (p21^Waf1/Cip1 and p53 [3]): 48 h | IC50 (HCC38): 2 nM | IC50 (COLO 205): 1.02 nM | IC50 (BxPC-3 [4]): 1 nM | IC50 (MDA-MB-231): 6 nM | IC50 (SK-MES-1): 8.61 nM | decrease of p21WAF1/Cip1 (p21^WAF1/Cip1): 31% | IC50 (Capan-1 [5]): 3.5 nM | IC50 (HCC1806): 1 nM | IC50 (MCF-7): 33 nM | IC50 (NCI-N87): 4.3 nM | PARP cleavage (PARP): mediated PARP cleavage | IC50 (SK-BR-3): 2 nM | exposure time at which p53 upregulation is evident (p21^Waf1/Cip1 and p53 [6]): 48 h | increase in p21Waf1/Cip1 expression (p21^Waf1/Cip1 and p53 [6]): 20 fold | IC50 (Capan-1 [7]): 1 nM | IC50 (BxPC-3 [8]): 1.6 nM | IC50 (MDA-MB-468 [9]): 0.8 nM | IC50 (PC-3): 1.86 nM | IC50 (Calu-3): 7.19 nM

— US20240352145A1, “EFFICACY OF ANTI-TROP-2-SN-38 ANTIBODY DRUG CONJUGATES FOR THERAPY OF TUMORS RELAPSED/REFRACTORY TO CHECKPOINT INHIBITORS” (Immunomedics, Inc., priority 2016, published 2024)
